Data taken from ChEMBL document CHEMBL5727273, “Heteroaryldiazepine derivatives as RSV inhibitors” (2019).

Test: RSV assay: Following extensive parameter testing, the final assay is run as follows: HEp-2 cells are seeded into the inner 60 wells of a 96-well plate at 8,000 cells per well in a volume of 50 μL using Growth Media (DMEM without phenol red, 1% L-Glut, 1% Penn/Strep, 1% nonessential amino acids, 10% FBS). 2-fold serial dilutions of control and test compounds are added to the wells in duplicate in a total volume of 25 μL. Viral stock is then added to the wells in a volume of 25 μL, bringing the total volume of each well to 100 μL. Each 96-well plate has a control column of 6 wells with cells and virus but no compound (negative control, max CPE), a column with cells but no compound or virus (positive control, minimum CPE), and a column with no cells or virus or compound (background plate/reagent control). The control wells with cells but no virus are given an additional 25 uL of growth media containing an equal quantity of sucrose as those wells receiving the viral stock in order to keep consistent in media and volume conditions. The outer wells of the plate are filled with 125 μL of growth media to act as a thermal and evaporative moat around the test wells. Following a 4-day incubation period, the plates are read using ATPlite (50 uL added per well), which quantifies the amount of ATP (a measure of cell health) present in each well. Assay plates are read using the Envision luminometer.

| Structure (SMILES) | EC50 [nM] | EC50 (HEp-2) [nM] |
| --- | --- | --- |
| Cc1cc(C(=O)c2ccccc2)c(N)s1 | > 800 | < 400 |
| O=C1Nc2cnccc2C(c2ccccc2)=NC1Nc1nnc(-c2ccc(F)cc2)o1 (centres undefined) |  | > 800 |
| O=C1Nc2cccnc2C(c2ccccc2)=NC1Nc1nnc(-c2ccccc2)o1 (centres undefined) |  | > 800 |
| O=C1Nc2ncccc2C(c2ccccc2)=NC1Nc1nnc(-c2ccc(F)cc2)o1 (centres undefined) |  | > 800 |
| Cc1sc2c(c1C)C(c1ccccc1)=NC(Nc1nnc(-c3ncc(C(F)(F)F)cc3N3CCOCC3)o1)C(=O)N2 (centres undefined) | > 800 | 600 |
| NC1N=C(c2ccccc2)c2sccc2NC1=O (centres undefined) |  | 600 |
| O=C(NC1N=C(c2ccccc2)c2ccsc2NC1=O)OCc1ccccc1 (centres undefined) |  | 600 |
